Reference: patent US20250339542A1, “CONVERSION OF A BIOLOGICALLY SILENT MIRNA BINDING SMALL MOLECULE TO AN MIRNA DEGRADER” (University of Florida Research Foundation, Incorporated, priority 2020, published 2025)
Values joined by “and” are separate entries in the source; they are usually repeats but may differ in a detail not shown here. Identical values can stand only once. “Also recorded” adds a separate entry of the source.

Assays:
RNase L / pre-miR-155 = biological target: T1, RNase L / pre-miR-155 (Homo sapiens, UniProt Q05823); assay: Immunoprecipitation of RNase L from MDA-MB-231 cells, RT-qPCR of pre-miR-155; type: cell-based; details: 100 nM, 48 h, relative to untreated
T1 construct: RNase L was immunoprecipitated from MDA-MB-231 cells; endogenous in cells; host or cells: MDA-MB-231
T1 sequence (Q05823 1-741): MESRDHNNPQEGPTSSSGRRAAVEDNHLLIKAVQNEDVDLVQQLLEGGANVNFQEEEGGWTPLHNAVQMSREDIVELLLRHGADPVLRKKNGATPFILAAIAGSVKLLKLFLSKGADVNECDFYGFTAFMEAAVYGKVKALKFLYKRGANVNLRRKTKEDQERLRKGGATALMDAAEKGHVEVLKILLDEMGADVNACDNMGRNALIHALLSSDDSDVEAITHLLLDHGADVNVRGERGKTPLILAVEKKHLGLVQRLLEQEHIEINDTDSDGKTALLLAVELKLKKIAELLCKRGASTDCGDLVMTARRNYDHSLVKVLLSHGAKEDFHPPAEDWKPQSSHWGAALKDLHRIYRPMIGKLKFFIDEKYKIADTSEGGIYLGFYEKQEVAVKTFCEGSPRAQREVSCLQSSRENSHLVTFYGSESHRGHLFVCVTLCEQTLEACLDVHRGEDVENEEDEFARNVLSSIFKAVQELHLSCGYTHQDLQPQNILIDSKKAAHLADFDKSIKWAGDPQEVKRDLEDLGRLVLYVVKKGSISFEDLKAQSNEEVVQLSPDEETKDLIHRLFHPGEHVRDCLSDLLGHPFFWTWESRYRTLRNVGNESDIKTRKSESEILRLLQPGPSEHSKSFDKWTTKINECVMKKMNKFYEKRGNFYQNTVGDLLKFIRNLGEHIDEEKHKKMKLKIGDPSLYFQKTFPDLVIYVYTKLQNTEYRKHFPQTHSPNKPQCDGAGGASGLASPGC
Description: Immunoprecipitation of RNase L. RNase L immunoprecipitation is performed according to published procedures.^16 Briefly, at […], MDA-MB-231 cells were treated with vehicle, 100 nM of 3 or 5 for 48 h. Cells were then washed with DPBS, and detached by scraper. The collected cells were lysed in 100 L of M-PER buffer(78503, Thermo Fisher) containing 1× Protease Inhibitor Cocktail III for Mammalian Cells (Research Products International Corp.) and 80 U of RNaseOUT Recombinant Ribonuclease Inhibitor (Invitrogen) per the manufacture's protocol. The samples were centrifuged at 13,000×g at 4° C. Protein concentration was determined by using a Pierce Mico BCA Protein Assay kit (Fisher Scientific). Approximately 200 g of the total protein per sample was incubated at 4° C. overnight with Dynabeads Protein A (Life Technologies) bound to either RNase L mouse primary antibody (Santa Cruz Biotechnology: sc-74405) or j-actin mouse primary antibody (Cell signaling: 8H10D10). Beads were then washed with 1× DPBST (1× DPBS supplemented with 0.02% Tween-20) for 3 times, after which RNA was extracted by using a miRNeasy Mini Kit (Qiagen) per the manufacturer's instructions. RT-qPCR was performed the same as mentioned above.

pre-miR-155 [1] = assay: RT-qPCR of pre-miR-155 levels in HUVECs; type: cell-based, human
Description: (§1) Tissue Culture. MDA-MB-231 cells were obtained from ATCC (HTB-26) and cultured in RPMI medium with […] & 25 mM HEPES (Corning) supplemented with 10% FBS (sigma). MCF-10a cells were obtained from ATCC(CRL-10317) and cultured in DMEM/F12 50/50 with glutamine and 15 mM HEPES(Corning) containing 20% FBS(Sigma), 1×Antibiotic-Antimycotic(Corning), 20 ng/mL of human epidermal growth factor(Pepro Tech Inc.), 100 μg/mL of insulin and […] of hydrocortisone (Pfizer &Bauer). HUVECs were cultured in EGM (Lonza) made using the EGM-2 bullet kit (Lonza) per the manufacturers protocol.
(§2) RT-qPCR analysis for Mature, Primary and Precursor miRNAs and mRNA levels. After compound treatment for the indicated time (MDA-MB-231 48 h and HUVECs 24 h), total RNA was extracted using the Zymo Quick-RNA mini prep kit according to the manufacturers protocol. Reverse Transcription (RT) for microRNAs and pri- and pre-miR-155 were done on 200 ng of RNA using the miScript II RT kit (Qiagen) according to the manufacturer's protocol. The mRNAs were done using QScript (Quanta Bio) on 200 ng of total RNA according to the manufacturer's protocol. RT-qPCR was done as mentioned above. The obtained data was analyzed by using the ΔΔCt method as described previously. For the washout experiment, MDA-MB-231 cells were treated with 3 for 48 h. Then the media was changed with fresh growth medium without compound and the cells incubated for 12, 24 and 36 h with RNA harvested and pre-miR-155 levels analyzed as described above.

miR-155 [2] = assay: RT-qPCR of mature miR-155 levels in MDA-MB-231 cells; type: cell-based, human; details: 48 h
Description: as §1, §2
(§3) RT-qPCR analysis for Mature, Primary and Precursor miRNAs and mRNA levels part. Relative RNA expression was determined by using ΔΔCt method with 18S rRNA as an internal control. Normalized fold change was calculated with the equation as below: […]

miR-155 [3] = assay: RT-qPCR of miR-155 levels in HUVECs; type: cell-based, human
Description: as §1, §2

pre-miR-155 [4] = assay: RT-qPCR of pre-miR-155 levels in MDA-MB-231 cells; type: cell-based, human
Description: as §1, §2, §3

pri-miR-155 = assay: RT-qPCR of pri-miR-155 levels in MDA-MB-231 cells; type: cell-based, human
Description: as §1
RT-qPCR analysis for Mature, Primary and Precursor miRNAs and mRNA levels. After compound treatment for the indicated time (MDA-MB-231 48 h and HUVECs 24 h), total RNA was extracted using the Zymo Quick-RNA mini prep kit according to the manufacturers protocol. […] The obtained data was analyzed by using the ΔΔCt method as described previously. […] Then the media was changed with fresh growth medium without compound and the cells incubated for 12, 24 and 36 h with RNA harvested and pre-miR-155 levels analyzed as described above.
as §3

HUVECs = assay: Angiogenesis: tubule network formation of HUVECs on Matrigel; type: cell-based, human
Description: Lastly, compound 3's (Formula I) effect on VHL protein and angiogenesis in HUVECs was studied. […] Since upregulation of VHL should attenuate the angiogenic capacity of HUVECs, their ability to differentiate into tubule networks on Matrigel as previously described was measured.^24 Treatment with compound 3, caused a decrease of 29% (100 vs. 140 branch points) in tubule branching for differentiated HUVECs. Although small, this decrease does correspond with suppression of miR-155 and de-repression of VHL, which is in line with the initial study by Kong et al. who observed a 42% reduction in branching points (FIG. 21I).^38 Taken together compound 3 degrades miR-155 in HUVECs with low nanomolar activity and is able to attenuate their angiogenic capacity.

SOCS1 = assay: Western blot of SOCS1 in MDA-MB-231 cells; type: cell-based, human
Description: Western-Blotting. MDA-MB-231 cells were plated in 6 well plates at 150,000 cells/well. And at 50% confluency, cells were treated with Vehicle or 155-ribotac for 48 h. Then the medium was removed and washed with 1× DPBS. The cells were trypsinized and pelleted. The pellets were washed twice with 1× DPBS and then lysed in 50 L of M-PER (Thermo Fisher) buffer with 1× protease inhibitor cocktail (Roche) on ice for 20 min. The lysate was centrifuged at 4° C. for 15 min and the supernatants were collected. Protein concentration were determined using a Pierce Mico BCA Protein Assay kit (Fisher Scientific) according to the manufacturer's protocol. Approximately 20 g of total protein for each sample was resolved on a 10% SDS-polyacrylamide gel and the protein were then transferred to a PVDF membrane. […] After washing with 1× TBST for 15 min for 3 times, SOCS1 protein expression was detected by using SuperSignal West Pico Chemiluminescent Substrate (Pierce Biotechnology).
The membrane was then stripped by Stripping Buffer (200 mM glycine with 0.1% SDS, pH 2.2) for 90 min at RT and then the membrane was washed with 1× TBST for 10 min for 3 times. […] The membrane was then washed with 1× TBST for 10 min for 3 times and j-actin expression level was detected. ImageJ software was used to quantify the protein bands.

MDA-MB-231 cells = assay: Migration assay of MDA-MB-231 cells; type: cell-based; details: Homo sapiens, compound 3 at 1×10^−7 M, read-out: inhibition of cellular migration
Description: (§4) Migration Assay: The Migration assay was performed the same as previous publication^15. Briefly, MDA-MB-231 cells were serum starved for 12 h in RPMI medium without FBS. Then, samples of 50,000 cells treated with vehicle or 155-Ribotac in serum starved medium were seeded into Hanging cell culture Inserts with 8.0 µm pores for 24 well plate with complete growth medium in the bottom well. After 20 h, the medium was aspirated and the inserts and the bottom wells were washed with DPBS twice. Then to the bottom well were added 400 µL of 4% paraformaldehyde. After fixing for 20 min. The inserts and wells were washed with DPBS twice and then treated with 400 µL of 0.1% crystal violet solution. After 20 min, the wells and inserts were washed with water twice and PBS once. Cotton swabs were used to remove the cells inside the inserts. Migration inserts were completely air-dried and imaged by using a Leica DMI3000 B upright fluorescent microscope.

MCF-10a cells = assay: Migration assay of transfected MCF-10a cells; type: cell-based; details: mock transfected MCF-10a cells
Description: Lastly, the dependence of migration on miR-155 and the activity of 3 on the presence of the 5′GAU/3′C_A bulge was assessed. MCF-10a cells, a model of healthy breast epithelium, were transfected with wild type pre-miR-155 and mutant pre-miR-155, where the 5′GAU/3′C_A bulge is mutated to an AU base pair. […] Treatment with 3 reduced migration of MCF-10a cells transfected with WT pre-miR-155 by 60%, in contrast to mutant miR-155 expressing cells in which the compound's binding site has been ablated, the migration of which was unaffected by 3 treatment.
as §4, with “Migration inserts were completely air-dried and imaged by using a Leica DMI3000 B upright fluorescent microscope.” left out

Von-Hippel Lindau (VHL) = assay: Western blot of VHL in HUVECs; type: cell-based, human
[5] = tested on: RNA isoforms of miR-155 that contain the 5′GAU/3′C_A binding site; assay: RT-qPCR of RNA isoforms of miR-155 (same binding site) in MDA-MB-231 cells; type: cell-based, human; details: 48 h
Description: Next, the selectivity of 3 to inhibit miR-155 out of 373 expressed miRNAs in MDA-MB-231 cell was assessed. […] A comparison of their structures to the aforementioned list of miRNAs with potential RIBOTAC sites identified that all except pre-miR-101-1 and pre-let-7g have a RIBOTAC targetable motif.
as §2

SMILES | enrichment of pre-miR-155 in RNase L pulldown fractions (RNase L / pre-miR-155) | effect on pre-miR-155 levels (pre-miR-155 [1]) | effect on miR-155 levels / miR-155 biogenesis (miR-155 [2]) | effect on miR-155 levels (miR-155 [3]) | degradation of pre-miR-155 (pre-miR-155 [4]; MDA-MB-231 cells, 1×10^−7 M, 48 h) [%] | degradation of pre-miR-155 (pre-miR-155 [4]; MDA-MD-231 and/or HUVEC cells, 0.1 micromolar, summary) [%] | degradation of the primary transcript (pri-miR-155) (pri-miR-155) [%] | lowest concentration showing cleavage of pre-miR-155 (pre-miR-155 [1]) [nM] | inhibition at 0.001 µM (pre-miR-155 [1]; Homo sapiens, HUVEC, 1×10^−9 M) [%] | inhibition of angiogenic capacity / decrease in tubule branching (HUVECs; differentiated HUVECs on Matrigel) | branch points (HUVECs; differentiated HUVECs, treated (vs. 140 untreated)) | de-repression of SOCS1 (SOCS1) [%] | upregulation of SOCS1 (SOCS1) [fold] | inhibition at 0.1 µM (MDA-MB-231 cells) [%] | effect on migration (MCF-10a cells) | de-repression of VHL (Von-Hippel Lindau (VHL); 10 nM) [%] | de-repression of VHL (Von-Hippel Lindau (VHL); 1×10^−7 M) [fold] | effect on RNA isoforms of miR-155 [5] | lowest concentration showing reduction of miR-155 levels (miR-155 [3]) [nM] | inhibition at 0.001 µM (miR-155 [3]; Homo sapiens, HUVEC, 1×10^−9 M) [%]
CCOC(=O)C1=C(Nc2ccccc2)S/C(=C\c2ccc(O)c(OCCOCCOCCOCCNC(=O)CCc3c(C)n(-c4c(C(C)C)cccc4C(C)C)c[n+]3-c3c(C(C)C)cccc3C(C)C)c2)C1=O [Compound 5] | no enrichment | no effect | no effect; also recorded: does not inhibit | no effect |  |  |  |  |  |  |  |  |  |  |  |  |  |  |  | 
CCOC(=O)C1=C(Nc2ccccc2)S/C(=C\c2ccc(OCCOCCOCCOCCNC(=O)CCc3c(C)n(-c4c(C(C)C)cccc4C(C)C)c[n+]3-c3c(C(C)C)cccc3C(C)C)c(O)c2)C1=O [Compound 3] |  |  |  |  | 60 | ≥ 60 | 43 | ≤ 1 | 50 | 20% and 29% | 100 | 50 | 1.6 | 50 | inactive | 50 | 1.5 | no effect | ≤ 1 | 50
